In US7872005B2, “2-substituted heteroaryl compounds” (Synta Pharmaceuticals Corporation, priority 2004, dated 2011):

Tested on: IL-12 production in human PBMC or THP-1 cells
Test: In vitro inhibition of IL-12 production in stimulated human PBMC or THP-1 cells (ELISA)
Format: cell-based
Details: representative in vitro IC50 data
Description: The biological activities of a heterocyclic compound can be evaluated by a number of cell-based assays. One of such assays can be conducted using cells from human peripheral blood mononuclear cells (PBMC) or human monocytic cell line (THP-1). The cells are stimulated with a combination of human interferon-γ (IFNγ) and lipopolysaccharide or a combination of IFNγ and Staphylococcus aureus Cowan I in the presence of a test compound. The level of inhibition of IL-12 production can be measured by determining the amount of p70 by using a sandwich ELISA assay with anti-human IL-12 antibodies. IC50 of the test compound can then be determined. Specifically, PBMC or THP-1 cells are incubated with the test compound. Cell viability was assessed using the bioreduction of MTS [3-(4,5-dimethylthiazol-2-yl)-5-(3-carboxymethoxyphenyl)-2-(4-sulfophenyl)-2H-tetrazolium] (Promega, Madison, Wis.).
Reagents. Staphylococcus aureus Cowan I (SAC) was obtained from Calbiochem (La Jolla, Calif.), and lipopolysaccharide (LPS, Serratia marscencens) was obtained from Sigma (St. Louis, Mo.). Human and mouse recombinant IFNγ were purchased from Boehringer Mannheim (Mannheim, Germany) and Pharmingen (San Diego, Calif.), respectively.
Human In Vitro Assay. Human PBMC were isolated by centrifugation using Ficoll-Paque (Pharmacia Biotech, Uppsala, Sweden) and prepared in RPMI medium supplemented with 10% fetal calf serum (FCS), 100 U/mL penicillin, and 100 μg/mL streptomycin. PBMC were plated in wells of a 96-well plate at a concentration of 5×10^5 cells/well, and primed by adding IFNγ (30 U/mL) for 22 h and stimulated by adding LPS (1 μg/mL), or by adding IFNγ (100 U/mL) and then stimulated by adding SAC (0.01%). A test pyrimidine compound was dissolved in DMSO, and added to wells of the 96-well plate. The final DMSO concentration was adjusted to 0.25% in all cultures, including the compound-free control. Human THP-1 cells were plated in wells, primed by adding IFNγ (100 U/mL) for 22 h and stimulated by adding SAC (0.025%) in the presence of different concentrations of the pyrimidine compound. Cell-free supernatants were taken 18 h later for measurement of cytokines. Cell viability was assessed using the bioreduction of MTS. Cell survival was estimated by determining the ratio of the absorbance in compound-treated groups versus compound-free control.
The supernatant was assayed for the amount of IL-12p40, IL-12p70, or IL-10 by using a sandwich ELISA with anti-human antibodies, i.e., a Human IL-12 p40 ELISA kit from R&D Systems (Berkeley, Calif.), and a Human IL-12 p70 or IL-10 ELISA kit from Endogen (Cambridge, Mass.). Assays were based on the manufacturer's instructions.
The biological activities of pyrimidine compounds were tested on human PBMC or THP-1 cells. Unexpectedly, some of the test compounds have IC50 values as low as <1 nM.

SMILES | IC50
Cc1cccc(/C=N/Nc2cc(N3CCOCC3)nc(CC(C)(C)OC(=O)Nc3ccc(C(F)(F)F)cc3)n2)c1 [Compound 30, (4-Trifluoromethyl-phenyl)-carbamic acid 1,1-dimethyl-2-{4-[N′-(3-methyl-benzylidene)-hydrazino]-6-morpholin-4-yl-pyrimidin-2-yl}-ethyl ester] | < 25 nM
Cc1cccc(/C=N/Nc2cc(N3CCOCC3)nc(CCSc3nnnn3CCN(C)C)n2)c1 [Compound 18, Dimethyl-{2-[5-(2-{4-[N′-(3-methyl-benzylidene)-hydrazino]-6-morpholin-4-yl-pyrimidin-2-yl}-ethylsulfanyl)-tetrazol-1-yl]-ethyl}-amine] | < 25 nM
Cc1cccc(/C=N/Nc2cc(N3CCOCC3)nc(CCOC(=O)Nc3ccc([N+](=O)[O-])cc3)n2)c1 [Compound 15, (4-Nitro-phenyl)-carbamic acid 2-{4-[N′-(3-methyl-benzylidene)-hydrazino]-6-morpholin-4-yl-pyrimidin-2-yl}-ethyl ester] | < 25 nM
Cc1cccc(/C=N/Nc2cc(N3CCOCC3)nc(CCCOC(=O)Nc3ccc([N+](=O)[O-])cc3)n2)c1 [Compound 7, (4-Nitro-phenyl)-carbamic acid 3-{4-[N′-(3-methyl-benzylidene)-hydrazino]-6-morpholin-4-yl-pyrimidin-2-yl}-propyl ester] | < 25 nM
Cc1cccc(/C=N/Nc2cc(N3CCOCC3)nc(CCCOC(=O)Nc3ccc(Oc4ccccc4)cc3)n2)c1 [Compound 11, (4-Phenoxy-phenyl)-carbamic acid 3-{4-[N′-(3-methyl-benzylidene)-hydrazino]-6-morpholin-4-yl-pyrimidin-2-yl}-propyl ester] | 25 to 50 nM
COC(=O)c1ccc(NC(=O)OCCc2nc(N/N=C/c3cccc(C)c3)cc(N3CCOCC3)n2)cc1 [Compound 23, 4-(2-{4-[N′-(3-Methyl-benzylidene)-hydrazino]-6-morpholin-4-yl-pyrimidin-2-yl}-ethoxycarbonylamino)-benzoic acid methyl ester] | < 25 nM
